According to US12428427B2, “Methods and compositions for targeting PD-L1” (Aligos Therapeutics, Inc., priority 2021, dated 2025):
pEC50, pIC50: −log10 of the molar value.

What was measured:
PDL1/PD1 = PDL1/PD1 (Homo sapiens, UniProt Q9NZQ7); test: PDL1/PD1 Binding Assay; details: PDL1-6×His 0.3 nM, PD1-Fc-Avi-Biotin 2.5 nM, Acceptor/Donor beads; read-out: PD-1/PD-L1 PPI IC50
Method: Compounds to be tested were serially diluted in DMSO, and further diluted in assay buffer (25 mM Hepes pH 7.4, 150 mM NaCl, 0.005% Tween 20, BSA 0.01%). Diluted compounds were added to the wells with final concentration of DMSO at 1%. PDL1-6×His protein was added to the wells, mixed well with compound. The plates were incubated for 30 min at room temperature. PD1-Fc-Avi-Biotin protein was added to the wells. Final concentration of PDL1 and PD1 protein is 0.3 nM and 2.5 nM, respectively. After a binding time of 30 min at room temperature, Anti-6×His Acceptor beads (final concentration 20 ug/ml) were added to the wells, and the incubation continued for 1 h. Streptavidin Donor beads (final concentration 20 ug/mL) were added at reduced light. The plates were sealed with foil and incubated in the dark for additional 1 h or overnight before reading on an Envision reader. The IC50 values were determined by fitting the curves using a four-parameter equation in Graphpad Prism 8.

PD-1/PD-L1 interaction = biological target: T1, PD-1/PD-L1 interaction (Homo sapiens, UniProt Q9NZQ7); test: PD-1/PD-L1 NFAT Reporter Assay; type: cell-based; details: co-culture of PD-L1 expressing CHO cells and PD-1 overexpressing Jurkat cells, 6 hrs, NFAT luciferase
T1 construct: expressed in transfected cells; Jurkat cells (PD-1 plus NFAT-luciferase)
Method: Blocking the PD-1/PD-L1 interaction will release the inhibitory signal and results in TCR signaling and NFAT-mediated luciferase activity.
CHO cells expressing surface-bound anti-CD3 antibodies and PD-L1 were first seeded overnight and treated with the compounds. Jurkat cells overexpressing PD-1 and a luciferase construct under NFAT promoter were then immediately seeded on the monolayer of CHO cells. The co-culture was then incubated for 6 hrs at 37° C. Luciferase activity was assessed by adding the ONE-Glo reagent and measuring luminescence with a plate reader. EC50 values were determined from the fit of the dose-response curves.

Chain of PDL1/PD1 (Q9NZQ7 19-238 limits assumed): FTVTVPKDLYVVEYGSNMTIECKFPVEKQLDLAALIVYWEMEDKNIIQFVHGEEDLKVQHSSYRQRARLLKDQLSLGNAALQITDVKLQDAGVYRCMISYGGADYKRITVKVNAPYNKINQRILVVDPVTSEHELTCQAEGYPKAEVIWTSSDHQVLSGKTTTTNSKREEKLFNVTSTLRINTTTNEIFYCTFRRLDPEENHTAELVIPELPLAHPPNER
T1 sequence (Q9NZQ7 19-290): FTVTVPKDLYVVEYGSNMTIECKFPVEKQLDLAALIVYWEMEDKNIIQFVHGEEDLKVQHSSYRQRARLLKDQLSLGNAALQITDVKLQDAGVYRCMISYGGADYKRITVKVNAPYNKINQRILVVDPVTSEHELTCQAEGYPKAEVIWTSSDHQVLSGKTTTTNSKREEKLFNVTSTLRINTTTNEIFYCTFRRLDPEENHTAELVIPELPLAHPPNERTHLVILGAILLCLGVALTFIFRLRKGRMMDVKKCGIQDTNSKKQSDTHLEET

| Structure (SMILES) | pIC50 (PDL1/PD1) | pEC50 (PD-1/PD-L1 interaction) |
| --- | --- | --- |
| COc1nc(-c2cccc(-c3cccc(NC(=O)c4ccnn(C)c4=O)c3C)c2Cl)ccc1CNC1CCN(C(C)=O)C[C@@H]1O (stereo in doubt) [Compound C-69] | ≥ 8.00 | ≥ 8.00 |
| COc1nc(-c2cccc(-c3cccc(NC(=O)c4ccnn(C)c4=O)c3Cl)c2Cl)cnc1CN1CC2(CCC(=O)N2)C1 [Compound A-1] | ≥ 8.00 | 7.00 to 8.00 |
| COc1nc(-c2cccc(-c3cccc(NC(=O)c4ccn[nH]c4=O)c3Cl)c2Cl)cnc1CN1CC2(CCC(=O)N2)C1 [Compound A-2] | ≥ 8.00 | 7.00 to 8.00 |
| COc1nc(-c2cccc(-c3cccc(NC(=O)c4cc(Cl)n[nH]c4=O)c3Cl)c2Cl)cnc1CN1CC2(CCC(=O)N2)C1 [Compound A-3] | ≥ 8.00 | 6.00 to 7.00 |
| COc1nc(-c2cccc(-c3cccc(NC(=O)c4cc(C)n[nH]c4=O)c3Cl)c2Cl)cnc1CN1CC2(CCC(=O)N2)C1 [Compound A-4] | ≥ 8.00 | 6.00 to 7.00 |
| COc1nc(-c2cccc(-c3cccc(NC(=O)c4ccnn(C)c4=O)c3Cl)c2Cl)cnc1CNC[C@@H]1CCC(=O)N1 [Compound B-1] | ≥ 8.00 | 7.00 to 8.00 |
| COc1nc(-c2cccc(-c3cccc(NC(=O)c4ccnn(C)c4=O)c3Cl)c2Cl)ccc1CNC[C@@H]1CCC(=O)N1 [Compound B-2] | ≥ 8.00 | 7.00 to 8.00 |
| COc1nc(-c2cccc(-c3cccc(NC(=O)c4ccnn(C)c4=O)c3Cl)c2Cl)cc(C)c1CNC[C@@H]1CCC(=O)N1 [Compound B-3] | ≥ 8.00 | ≥ 8.00 |
| COc1nc(-c2cccc(-c3cccc(NC(=O)c4ccnn(C)c4=O)c3C)c2F)cc(C)c1CNC[C@@H]1CCC(=O)N1 [Compound B-4] | ≥ 8.00 | 7.00 to 8.00 |
| COc1nc(-c2cccc(-c3cccc(NC(=O)c4ccnn(C)c4=O)c3C)c2Cl)cnc1CNC[C@@H]1CCC(=O)N1 [Compound B-5] | ≥ 8.00 | 6.00 to 7.00 |
| COc1nc(-c2cccc(-c3cccc(NC(=O)c4ccnn(C)c4=O)c3C)c2Cl)ccc1CNC[C@@H]1CCC(=O)N1 [Compound B-6] | ≥ 8.00 | ≥ 8.00 |
| COc1nc(-c2cccc(-c3cccc(NC(=O)c4ccnn(C)c4=O)c3C)c2Cl)cc(C)c1CNC[C@@H]1CCC(=O)N1 [Compound B-7] | ≥ 8.00 | ≥ 8.00 |
| COc1nc(-c2cccc(-c3cccc(NC(=O)c4ccnn(C)c4=O)c3Cl)c2Cl)ccc1CN[C@@H]1CCOC[C@@H]1O [Compound C-1] | ≥ 8.00 | < 5.00 |
| COc1nc(-c2cccc(-c3cccc(NC(=O)c4ccnn(C)c4=O)c3Cl)c2Cl)ccc1CNCCO [Compound C-2] | ≥ 8.00 | 7.00 to 8.00 |
| COc1nc(-c2cccc(-c3cccc(NC(=O)c4ccnn(C)c4=O)c3Cl)c2Cl)ccc1CNC[C@H](C)O [Compound C-3] | ≥ 8.00 | 7.00 to 8.00 |
| COc1nc(-c2cccc(-c3cccc(NC(=O)c4ccnn(C)c4=O)c3Cl)c2Cl)ccc1CNC[C@@H](C)O [Compound C-4] | ≥ 8.00 | ≥ 8.00 |
| COc1nc(-c2cccc(-c3cccc(NC(=O)c4ccnn(C)c4=O)c3Cl)c2Cl)ccc1CNCC(C)(C)O [Compound C-5] | ≥ 8.00 | 7.00 to 8.00 |
| COc1nc(-c2cccc(-c3cccc(NC(=O)c4ccnn(C)c4=O)c3Cl)c2Cl)ccc1CNC1CC1 [Compound C-6] | ≥ 8.00 | 7.00 to 8.00 |
| COc1nc(-c2cccc(-c3cccc(NC(=O)c4ccnn(C)c4=O)c3Cl)c2Cl)ccc1CN1CC(O)C1 [Compound C-7] | ≥ 8.00 | ≥ 8.00 |
| COc1nc(-c2cccc(-c3cccc(NC(=O)c4ccnn(C)c4=O)c3Cl)c2Cl)ccc1CN1CC(OC)C1 [Compound C-8] | ≥ 8.00 | 7.00 to 8.00 |
| COc1nc(-c2cccc(-c3cccc(NC(=O)c4ccnn(C)c4=O)c3Cl)c2Cl)ccc1CN1CC(C(=O)O)C1 [Compound C-9] | ≥ 8.00 | ≥ 8.00 |
| COc1nc(-c2cccc(-c3cccc(NC(=O)c4ccnn(C)c4=O)c3Cl)c2Cl)ccc1CN1CCCC[C@H]1C(=O)O [Compound C-10] | ≥ 8.00 | 6.00 to 7.00 |
| COc1nc(-c2cccc(-c3cccc(NC(=O)c4ccnn(C)c4=O)c3Cl)c2Cl)ccc1CN1CCCC[C@@H]1C(=O)O [Compound C-11] | ≥ 8.00 | 6.00 to 7.00 |
| COc1nc(-c2cccc(-c3cccc(NC(=O)c4ccnn(C)c4=O)c3Cl)c2Cl)ccc1CN[C@](C)(CO)C(=O)O [Compound C-12] | ≥ 8.00 | 7.00 to 8.00 |
| CCOC(=O)C1CN(Cc2ccc(-c3cccc(-c4cccc(NC(=O)c5ccnn(C)c5=O)c4Cl)c3Cl)nc2OC)C1 [Compound C-13] | ≥ 8.00 | 7.00 to 8.00 |
